Test results reported in patent US9328099B2, “Cyanomethylpyrazole carboxamides as janus kinase inhibitors” (Merck Sharp & Dohme Corp., priority 2011, dated 2016).

Columns and labels:
JAK1 = JAK1 (Homo sapiens (Human), UniProt P23458); test: Jak Biochemical HTRF Assay, JAK1; settings: HTRF biochemical assay, GST-tagged catalytic domain; top concentration tested […]; read-out: JAK1 IC50
Description: (§1) Jak Biochemical HTRF Assay Protocol
(§2) Subsequent reagent additions employed an Agilent Bravo.

JAK2 = JAK2 (Homo sapiens (Human), UniProt O60674); test: Jak Biochemical HTRF Assay, JAK2; settings: HTRF biochemical assay, GST-tagged catalytic domain; top concentration tested […]
Description: as §1, §2

Sequence of JAK2 (O60674 849-1124): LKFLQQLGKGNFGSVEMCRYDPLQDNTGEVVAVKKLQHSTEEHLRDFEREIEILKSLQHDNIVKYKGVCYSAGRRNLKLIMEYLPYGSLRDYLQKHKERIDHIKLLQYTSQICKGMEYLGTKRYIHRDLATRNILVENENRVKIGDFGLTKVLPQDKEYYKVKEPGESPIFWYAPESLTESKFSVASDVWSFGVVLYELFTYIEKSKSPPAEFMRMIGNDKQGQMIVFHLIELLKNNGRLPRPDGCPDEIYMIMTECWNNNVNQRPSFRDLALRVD
Sequence of JAK1 (P23458 875-1153): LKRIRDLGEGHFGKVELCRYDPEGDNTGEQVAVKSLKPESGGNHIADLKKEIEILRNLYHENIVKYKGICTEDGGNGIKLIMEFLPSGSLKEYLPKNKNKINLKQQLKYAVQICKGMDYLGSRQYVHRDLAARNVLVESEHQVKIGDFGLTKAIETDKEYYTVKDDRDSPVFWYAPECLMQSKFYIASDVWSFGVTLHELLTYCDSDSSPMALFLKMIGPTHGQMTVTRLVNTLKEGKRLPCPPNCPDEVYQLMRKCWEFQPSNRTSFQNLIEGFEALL

Row | SMILES | IC50 (JAK1) [nM] | IC50 (JAK2) [nM]
1 | CCCc1ccc(CN2CCC(CC#N)(n3cc(C(N)=O)c(Nc4ccccc4)n3)CC2)cc1 [Example 21-22, 1-[4-(cyanomethyl)-1-(4-propylbenzyl)piperidin-4-yl]-3-(phenylamino)-1H-pyrazole-4-carboxamide] | 72 | 888
2 | N#CCC1(n2cc(C(N)=O)c(Nc3ccccc3)n2)CCN(S(=O)(=O)c2cccc(Cl)c2)CC1 [Example 37-11, 1-{1-[(3-chlorophenyl)sulfonyl]-4-(cyanomethyl)piperidin-4-yl}-3-(phenylamino)-1H-pyrazole-4-carboxamide] | 0.6 | 2
3 | CC(C)(C)OC(=O)N1CCC(CC#N)(n2cc(C(N)=O)c(Nc3ccccn3)n2)CC1 [Example 13-3, tert-butyl 4-(4-carbamoyl-3-(pyridin-2-ylamino)-1H-pyrazol-1-yl)-4-(cyanomethyl)piperidine-1-carboxylate] | 8 | 466
4 | CS(=O)(=O)c1ccc(Nc2nn(C3(CC#N)CN(C(=O)OC4CCOC4)C3)cc2C(N)=O)cc1 (stereo not drawn) [Example 30-75, tetrahydrofuran-3-yl 3-(4-carbamoyl-3-{[4-(methylsulfonyl)phenyl]amino)-1H-pyrazol-1-yl)-3-(cyanomethyl)azetidine-1-carboxylate] | 22 | 221
5 | Cc1cc(N2CCC(CC#N)(n3cc(C(N)=O)c(Nc4ccc(F)cc4)n3)CC2)ccn1 [Example 3-4, 1-[4-(cyanomethyl)-1-(2-methylpyridin-4-yl)piperidin-4-yl]-3-[(4-fluorophenyl)amino]-1H-pyrazole-4-carboxamide] | 8 | 174
6 | N#CCC1(n2cc(C(N)=O)c(Nc3ccccc3)n2)CCN(C(=O)c2ccc(Cl)cc2)CC1 [Example 34-19, 1-{1-[(4-chlorophenyl)carbonyl]-4-(cyanomethyl)piperidin-4-yl}-3-(phenylamino)-1H-pyrazole-4-carboxamide] | 11 | 184
7 | N#CCC1(n2cc(C(N)=O)c(Nc3ccc(F)cc3)n2)CCN(c2cc(C(F)(F)F)ccn2)CC1 [Example 3-55, 1-{4-(cyanomethyl)-1-[4-(trifluoromethyl)pyridin-2-yl]piperidin-4-yl}-3-[(4-fluorophenyl)amino]-1H-pyrazole-4-carboxamide] | 1 | 75
8 | N#CCC1(n2cc(C(N)=O)c(Nc3ccnc(F)c3)n2)CCN(C(=O)C2(C(F)(F)F)CCC2)CC1 [Example 34-51, 1-[4-(cyanomethyl)-1-{[1-(trifluoromethyl)cyclobutyl]carbonyl}piperidin-4-yl]-3-[(2-fluoropyridin-4-yl)amino]-1H-pyrazole-4-carboxamide] | 4 | 37
9 | Cc1cccc(NC(=O)N2CC(CC#N)(n3cc(C(N)=O)c(Nc4ccccc4)n3)C2)c1 [Example 38-11, 1-{3-(cyanomethyl)-1-[(3-methylphenyl)carbamoyl]azetidin-3-yl}-3-(phenylamino)-1H-pyrazole-4-carboxamide] | 4 | 78
10 | CC(C)(C)C(=O)N1CCC(CC#N)(n2cc(C(N)=O)c(Nc3ccccc3)n2)CC1 [Example 34-3, 1-[4-(cyanomethyl)-1-(2,2-dimethylpropanoyl)piperidin-4-yl]-3-(phenylamino)-1H-pyrazole-4-carboxamide] | 13 | 91
11 | N#CCC1(n2cc(C(N)=O)c(Nc3ccnc(F)c3)n2)CCC(Nc2ccc(F)c(F)c2)CC1 (stereo not drawn) [Example 40-20, Cis or trans 1-{1-(cyanomethyl)-4-[(3,4-difluorophenyl)amino]cyclohexyl}-3-[(2-fluoropyridin-4-yl)amino]-1H-pyrazole-4-carboxamide] | 1 | 43
12 | Cc1cc(Nc2nn(C3(CC#N)CCN(C(=O)OC(C)(C)C)CC3)cc2C(N)=O)ncn1 [Example 13-11, tert-butyl 4-(4-carbamoyl-3-(6-methylpyrimidin-4-ylamino)-1H-pyrazol-1-yl)-4-(cyanomethyl)piperidine-1-carboxylate] | 5 | 126
13 | N#CCC1(n2cc(C(N)=O)c(Nc3ccc(F)cc3)n2)CCN(C(=O)OCC2(O)CC2)CC1 [Example 30-13, (1-hydroxycyclopropyl)methyl 4-(4-carbamoyl-3-(4-fluorophenylamino)-1H-pyrazol-1-yl)-4-(cyanomethyl)piperidine-1-carboxylate] | 0.9 | 20
14 | CN(c1ccccc1)C1CCC(CC#N)(n2cc(C(N)=O)c(Nc3ccnc(F)c3)n2)CC1 (stereo not drawn) [Example 40-34, Cis or trans 1-{1-(cyanomethyl)-4-[methyl(phenyl)amino]cyclohexyl}-3-[(2-fluoropyridin-4-yl)amino]-1H-pyrazole-4-carboxamide] | 4 | 105
15 | CC(C)c1ccc(NC(=O)N2CC(CC#N)(n3cc(C(N)=O)c(Nc4ccccc4)n3)C2)cc1 [Example 38-7] | 5 | 80
16 | N#CCC1(n2cc(C(N)=O)c(Nc3ccccc3)n2)CCN(Cc2ccc(C#N)cc2)CC1 [Example 21-4, 1-[1-(4-cyanobenzyl)-4-(cyanomethyl)piperidin-4-yl]-3-(phenylamino)-1H-pyrazole-4-carboxamide] | 29 | 243
17 | N#CCC1(n2cc(C(N)=O)c(Nc3ccnc(F)c3)n2)CCN(Cc2cccc3cc[nH]c23)CC1 [Example 22-21, 1-[4-(cyanomethyl)-1-(1H-indol-7-ylmethyl)piperidin-4-yl]-3-[(2-fluoropyridin-4-yl)amino]-1H-pyrazole-4-carboxamide] | 0.7 | 41
18 | C[C@H](OC(=O)N1CCC(CC#N)(n2cc(C(N)=O)c(Nc3ccnc(F)c3)n2)CC1)C1CC1 [Example 30-77, (1S)-1-cyclopropylethyl 4-{4-carbamoyl-3-[(2-fluoropyridin-4-yl)amino]-1H-pyrazol-1-yl}-4-(cyanomethyl)piperidine-1-carboxylate] | 0.2 | 9
19 | CC(C(=O)N1CCC(CC#N)(n2cc(C(N)=O)c(Nc3ccnc(F)c3)n2)CC1)C(F)(F)F (stereo not drawn) [Example 34-48, 1-[4-(cyanomethyl)-1-(3,3,3-trifluoro-2-methylpropanoyl)piperidin-4-yl]-3-[(2-fIuoropyridin-4-yl)amino]-1H-pyrazole-4-carboxamide] | 0.3 | 13
20 | Cc1ccc(NC(=O)N2CC(CC#N)(n3cc(C(N)=O)c(Nc4ccccc4)n3)C2)cc1F [Example 38-37, 1-{3-(cyanomethyl)-1-[(3-fluoro-4-methylphenyl)carbamoyl]azetidin-3-yl}-3-(phenylamino)-1H-pyrazole-4-carboxamide] | 8 | 114
21 | CC(C)(C)OC(=O)N1CCC(CC#N)(n2cc(C(N)=O)c(Nc3ccccc3)n2)C1 (stereo not drawn) [Example 2-17, tert-butyl 3-[4-carbamoyl-3-(phenylamino)-1H-pyrazol-1-yl]-3-(cyanomethyl)pyrrolidine-1-carboxylate] | 2 | 27
22 | CCCCC(=O)N1CCC(CC#N)(n2cc(C(N)=O)c(Nc3ccccc3)n2)CC1 [Example 34-4, 1-[4-(cyanomethyl)-1-pentanoylpiperidin-4-yl]-3-(phenylamino)-1H-pyrazole-4-carboxamide] | 12 | 70
23 | Cc1cncc(N2CCC(CC#N)(n3cc(C(N)=O)c(Nc4ccc(F)cc4)n3)CC2)c1 [Example 3-48, 1-[4-(cyanomethyl)-1-(5-methylpyridin-3-yl)piperidin-4-yl]-3-[(4-fluorophenyl)amino]-1H-pyrazole-4-carboxamide] | 1 | 26
24 | N#CCC1(n2cc(C(N)=O)c(Nc3ccnc(F)c3)n2)CCN(Cc2cocn2)CC1 [Example 22-26, 1-[4-(cyanomethyl)-1-(1,3-oxazol-4-ylmethyl)piperidin-4-yl]-3-[(2-fluoropyridin-4-yl)amino]-1H-pyrazole-4-carboxamide] | 6 | 117
25 | C[C@@H](NC(=O)N1CC(CC#N)(n2cc(C(N)=O)c(Nc3ccccc3)n2)C1)c1ccccc1 [Example 38-33, 1-[3-(cyanomethyl)-1-{[(1R)-1-phenylethyl]carbamoyl}azetidin-3-yl]-3-(phenylamino)-1H-pyrazole-4-carboxamide] | 26 | 265
26 | N#CCC1(n2cc(C(N)=O)c(Nc3ccccc3)n2)CN(C(=O)OC2CCCC2)C1 [Example 30-52, cyclopentyl 3-[4-carbamoyl-3-(phenylamino)-1H-pyrazol-1-yl]-3-(cyanomethyl)azetidine-1-carboxylate] | 3 | 76
27 | CS(=O)(=O)c1ccc(Nc2nn(C3(CC#N)CCC4(CC3)OCCO4)cc2C(N)=O)cc1 [Example 6-7, 1-[8-(cyanomethyl)-1,4-dioxaspiro[4.5]dec-8-yl]-3-{[4-(methylsulfonyl)phenyl]amino}-1H-pyrazole-4-carboxamide] | 19 | 206
28 | COc1ccccc1N1CCC(CC#N)(n2cc(C(N)=O)c(Nc3ccc(F)cc3)n2)CC1 [Example 3-41, 1-[4-(cyanomethyl)-1-(2-methoxyphenyl)piperidin-4-yl]-3-[(4-fluorophenyl)amino]-1H-pyrazole-4-carboxamide] | 213 | > 1500
29 | Cc1cc(C(=O)N2CCC(CC#N)(n3cc(C(N)=O)c(Nc4ccccc4)n3)CC2)no1 [Example 34-12, 1-{4-(cyanomethyl)-1-[(5-methylisoxazol-3-yl)carbonyl]piperidin-4-yl}-3-(phenylamino)-1H-pyrazole-4-carboxamide] | 15 | 195
30 | N#CCC1(n2cc(C(N)=O)c(Nc3ccnc(F)c3)n2)CCC(N2CCc3ccccc32)CC1 (stereo not drawn) [Example 40-54, Cis or trans 1-[1-(cyanomethyl)-4-(2,3-dihydro-1H-indol-1-yl)cyclohexyl]-3-[(2-fluoropyridin-4-yl)amino]-1H-pyrazole-4-carboxamide] | 0.9 | 24
